From ChEMBL document CHEMBL5696441 (Nat Chem Biol, 2011)

Key:
[1] = target: Dual specificity mitogen-activated protein kinase kinase 4 (Homo sapiens) (UniProt P45985); assay: Inhibition of MEK4 (unknown origin) assessed as remaining activity at 1 uM by Kinome scan method relative to control
[2] = target: Cyclin-dependent kinase 9 (Homo sapiens) (UniProt P50750); assay: Inhibition of CDK9 (unknown origin) assessed as remaining activity at 1 uM by Kinome scan method relative to control
[3] = target: Dual specificity tyrosine-phosphorylation-regulated kinase 2 (Homo sapiens) (UniProt Q92630); assay: Inhibition of DYRK2 (unknown origin) assessed as remaining activity at 1 uM by Kinome scan method relative to control
[4] = target: Non-receptor tyrosine-protein kinase TNK1 (Homo sapiens) (UniProt Q13470); assay: Inhibition of TNK1 (unknown origin) assessed as remaining activity at 1 uM by Kinome scan method relative to control
[5] = target: LIM domain kinase 2 (Homo sapiens) (UniProt P53671); assay: Inhibition of LIMK2 (unknown origin) assessed as remaining activity at 1 uM by Kinome scan method relative to control
LIM domain kinase 2 (Homo sapiens), sequence (P53671 whole entry, looked up, the tested form may be a part): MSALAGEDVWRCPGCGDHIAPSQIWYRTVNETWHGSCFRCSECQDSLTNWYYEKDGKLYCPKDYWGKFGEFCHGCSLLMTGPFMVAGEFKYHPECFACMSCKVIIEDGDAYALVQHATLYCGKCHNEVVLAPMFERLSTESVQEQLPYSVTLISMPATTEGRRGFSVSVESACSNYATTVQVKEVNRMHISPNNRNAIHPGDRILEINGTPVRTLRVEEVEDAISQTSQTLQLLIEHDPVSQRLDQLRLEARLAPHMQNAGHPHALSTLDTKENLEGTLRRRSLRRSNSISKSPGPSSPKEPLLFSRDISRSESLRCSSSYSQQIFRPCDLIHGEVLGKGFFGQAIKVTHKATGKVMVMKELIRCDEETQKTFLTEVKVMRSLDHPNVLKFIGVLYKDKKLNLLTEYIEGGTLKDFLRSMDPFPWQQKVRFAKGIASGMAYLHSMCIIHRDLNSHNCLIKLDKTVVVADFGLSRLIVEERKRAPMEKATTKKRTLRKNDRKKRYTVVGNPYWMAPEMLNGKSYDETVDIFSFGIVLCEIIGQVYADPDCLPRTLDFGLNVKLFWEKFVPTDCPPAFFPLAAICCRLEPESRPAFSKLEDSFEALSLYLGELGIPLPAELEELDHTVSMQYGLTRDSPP

[6] = target: Mitogen-activated protein kinase kinase kinase 19 (Homo sapiens) (UniProt Q56UN5); assay: Inhibition of YSK4 (unknown origin) assessed as remaining activity at 1 uM by Kinome scan method relative to control
[7] = target: Myosin-IIIb (Homo sapiens) (UniProt Q8WXR4); assay: Inhibition of MYO3B (unknown origin) assessed as remaining activity at 1 uM by Kinome scan method relative to control
[8] = target: MAP/microtubule affinity-regulating kinase 3 (Homo sapiens) (UniProt P27448); assay: Inhibition of MARK3 (unknown origin) assessed as remaining activity at 1 uM by Kinome scan method relative to control
[9] = target: Mitogen-activated protein kinase 11 (Homo sapiens) (UniProt Q15759); assay: Inhibition of P38beta (unknown origin) assessed as remaining activity at 1 uM by Kinome scan method relative to control
Mitogen-activated protein kinase 11 (Homo sapiens), sequence (Q15759 whole entry): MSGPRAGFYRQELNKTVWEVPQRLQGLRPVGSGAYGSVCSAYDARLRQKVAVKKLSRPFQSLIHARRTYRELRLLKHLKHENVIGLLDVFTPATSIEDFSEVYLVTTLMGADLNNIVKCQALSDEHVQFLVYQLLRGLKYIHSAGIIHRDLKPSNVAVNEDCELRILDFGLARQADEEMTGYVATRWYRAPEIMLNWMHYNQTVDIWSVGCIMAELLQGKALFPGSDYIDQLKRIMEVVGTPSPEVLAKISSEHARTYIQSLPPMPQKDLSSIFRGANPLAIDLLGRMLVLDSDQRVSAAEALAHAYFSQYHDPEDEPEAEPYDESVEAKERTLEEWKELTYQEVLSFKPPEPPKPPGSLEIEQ

[10] = target: T1, Tyrosine-protein kinase ITK/TSK (Homo sapiens) (UniProt Q08881); assay: Inhibition of ITK (unknown origin) assessed as remaining activity at 1 uM by Kinome scan method relative to control
T1 sequence (whole entry): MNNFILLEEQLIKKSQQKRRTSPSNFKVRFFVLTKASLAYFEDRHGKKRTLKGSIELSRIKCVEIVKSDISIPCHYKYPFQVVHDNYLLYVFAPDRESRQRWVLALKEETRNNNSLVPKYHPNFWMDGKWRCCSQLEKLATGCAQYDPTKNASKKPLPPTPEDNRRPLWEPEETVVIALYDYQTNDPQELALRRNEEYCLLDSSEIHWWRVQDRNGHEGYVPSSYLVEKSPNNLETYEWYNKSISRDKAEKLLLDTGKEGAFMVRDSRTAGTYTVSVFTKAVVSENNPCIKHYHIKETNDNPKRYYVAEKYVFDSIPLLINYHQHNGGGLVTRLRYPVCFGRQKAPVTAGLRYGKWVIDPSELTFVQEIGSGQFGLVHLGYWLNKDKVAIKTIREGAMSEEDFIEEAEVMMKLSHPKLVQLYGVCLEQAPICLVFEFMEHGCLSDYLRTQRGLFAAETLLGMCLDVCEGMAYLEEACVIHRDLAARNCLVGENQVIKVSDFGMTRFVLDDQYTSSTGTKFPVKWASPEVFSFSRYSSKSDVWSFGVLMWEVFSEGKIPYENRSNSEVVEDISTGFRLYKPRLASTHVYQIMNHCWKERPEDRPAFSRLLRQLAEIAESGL

[11] = target: Interferon-induced, double-stranded RNA-activated protein kinase (Homo sapiens) (UniProt P19525); assay: Inhibition of PRKR (unknown origin) assessed as remaining activity at 1 uM by Kinome scan method relative to control
Interferon-induced, double-stranded RNA-activated protein kinase (Homo sapiens), sequence (P19525 whole entry, the tested form may be a part): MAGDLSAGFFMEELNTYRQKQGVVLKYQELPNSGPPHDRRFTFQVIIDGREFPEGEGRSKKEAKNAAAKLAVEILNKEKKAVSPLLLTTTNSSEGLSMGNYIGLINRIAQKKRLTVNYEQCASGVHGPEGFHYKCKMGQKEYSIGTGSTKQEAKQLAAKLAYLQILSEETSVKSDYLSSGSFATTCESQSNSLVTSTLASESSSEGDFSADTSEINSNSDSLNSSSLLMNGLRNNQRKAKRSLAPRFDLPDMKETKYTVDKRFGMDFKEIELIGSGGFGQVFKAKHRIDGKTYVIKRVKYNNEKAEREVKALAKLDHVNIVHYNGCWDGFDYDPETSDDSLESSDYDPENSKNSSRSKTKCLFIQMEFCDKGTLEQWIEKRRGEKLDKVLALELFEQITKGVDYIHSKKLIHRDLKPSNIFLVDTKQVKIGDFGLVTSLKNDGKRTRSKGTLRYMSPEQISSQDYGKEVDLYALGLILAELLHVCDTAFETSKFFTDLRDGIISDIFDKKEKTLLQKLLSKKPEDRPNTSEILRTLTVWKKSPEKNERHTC

[12] = target: Phosphatidylinositol 3-kinase C2 domain-containing subunit gamma (Homo sapiens) (UniProt O75747); assay: Inhibition of PIK3C2G (unknown origin) assessed as remaining activity at 1 uM by Kinome scan method relative to control
[13] = target: Vascular endothelial growth factor receptor 1 (Homo sapiens) (UniProt P17948); assay: Inhibition of FLT1 (unknown origin) assessed as remaining activity at 1 uM by Kinome scan method relative to control
Vascular endothelial growth factor receptor 1 (Homo sapiens), sequence (P17948 whole entry): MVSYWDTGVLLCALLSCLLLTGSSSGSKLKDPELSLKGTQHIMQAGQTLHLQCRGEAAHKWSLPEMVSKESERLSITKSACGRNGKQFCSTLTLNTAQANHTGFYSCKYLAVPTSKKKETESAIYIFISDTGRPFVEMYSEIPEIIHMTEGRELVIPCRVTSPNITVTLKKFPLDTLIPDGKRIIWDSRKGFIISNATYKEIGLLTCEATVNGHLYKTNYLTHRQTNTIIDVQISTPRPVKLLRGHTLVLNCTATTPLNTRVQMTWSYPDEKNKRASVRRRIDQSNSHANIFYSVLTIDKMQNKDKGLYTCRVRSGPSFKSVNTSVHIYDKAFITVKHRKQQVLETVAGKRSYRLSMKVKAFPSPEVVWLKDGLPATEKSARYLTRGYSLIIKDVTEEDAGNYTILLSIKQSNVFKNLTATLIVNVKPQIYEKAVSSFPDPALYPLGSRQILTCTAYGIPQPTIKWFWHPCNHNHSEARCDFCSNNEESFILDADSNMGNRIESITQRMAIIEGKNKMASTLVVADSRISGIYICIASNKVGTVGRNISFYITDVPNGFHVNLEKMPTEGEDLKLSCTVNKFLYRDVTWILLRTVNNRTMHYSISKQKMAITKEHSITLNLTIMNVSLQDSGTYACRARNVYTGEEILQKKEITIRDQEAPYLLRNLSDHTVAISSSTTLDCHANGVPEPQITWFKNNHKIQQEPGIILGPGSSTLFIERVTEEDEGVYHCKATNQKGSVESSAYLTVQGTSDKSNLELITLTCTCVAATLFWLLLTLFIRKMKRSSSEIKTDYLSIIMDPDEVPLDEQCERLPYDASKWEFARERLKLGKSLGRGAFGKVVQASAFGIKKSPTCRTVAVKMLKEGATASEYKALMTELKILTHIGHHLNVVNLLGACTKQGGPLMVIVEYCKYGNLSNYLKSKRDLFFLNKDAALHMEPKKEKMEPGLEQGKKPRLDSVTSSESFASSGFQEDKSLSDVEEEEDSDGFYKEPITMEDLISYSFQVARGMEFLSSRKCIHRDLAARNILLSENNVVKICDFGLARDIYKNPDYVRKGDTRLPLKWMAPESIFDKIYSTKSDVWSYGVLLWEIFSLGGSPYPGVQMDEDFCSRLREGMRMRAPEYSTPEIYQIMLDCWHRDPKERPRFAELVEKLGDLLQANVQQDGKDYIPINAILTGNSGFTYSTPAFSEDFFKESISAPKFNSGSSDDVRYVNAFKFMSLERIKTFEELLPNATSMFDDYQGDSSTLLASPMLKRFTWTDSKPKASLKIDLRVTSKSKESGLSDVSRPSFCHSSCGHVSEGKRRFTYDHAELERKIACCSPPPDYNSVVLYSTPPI

[14] = target: T2, Serine/threonine-protein kinase D3 (Homo sapiens) (UniProt O94806); assay: Inhibition of PRKD3 (unknown origin) assessed as remaining activity at 1 uM by Kinome scan method relative to control
T2 sequence (whole entry): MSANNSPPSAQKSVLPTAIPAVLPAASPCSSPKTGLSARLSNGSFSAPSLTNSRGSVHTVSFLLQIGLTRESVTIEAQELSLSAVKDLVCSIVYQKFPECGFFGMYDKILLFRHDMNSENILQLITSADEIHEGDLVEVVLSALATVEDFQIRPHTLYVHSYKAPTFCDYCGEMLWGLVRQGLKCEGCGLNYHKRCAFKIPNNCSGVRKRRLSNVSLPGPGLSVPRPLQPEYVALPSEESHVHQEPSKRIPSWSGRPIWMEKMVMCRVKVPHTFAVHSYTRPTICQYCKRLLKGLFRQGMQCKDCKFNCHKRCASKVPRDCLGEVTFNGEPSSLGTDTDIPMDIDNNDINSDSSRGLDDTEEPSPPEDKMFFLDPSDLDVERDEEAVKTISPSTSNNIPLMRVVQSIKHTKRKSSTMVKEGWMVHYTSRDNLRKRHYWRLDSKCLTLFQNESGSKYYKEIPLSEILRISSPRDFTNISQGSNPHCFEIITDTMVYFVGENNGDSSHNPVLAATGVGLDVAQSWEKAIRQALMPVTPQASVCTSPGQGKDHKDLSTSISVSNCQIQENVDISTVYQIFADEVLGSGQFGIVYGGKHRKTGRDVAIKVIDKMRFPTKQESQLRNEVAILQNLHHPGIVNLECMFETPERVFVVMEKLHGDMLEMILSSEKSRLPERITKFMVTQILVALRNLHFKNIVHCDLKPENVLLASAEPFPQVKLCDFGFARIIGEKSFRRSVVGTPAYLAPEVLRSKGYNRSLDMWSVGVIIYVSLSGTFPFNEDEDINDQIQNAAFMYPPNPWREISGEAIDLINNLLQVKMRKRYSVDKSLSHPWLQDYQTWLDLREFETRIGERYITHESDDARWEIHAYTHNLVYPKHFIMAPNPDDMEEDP

[15] = target: Cyclin-dependent kinase-like 5 (Homo sapiens) (UniProt O76039); assay: Inhibition of CDKL5 (unknown origin) assessed as remaining activity at 1 uM by Kinome scan method relative to control
[16] = target: Serine/threonine-protein kinase PLK1 (Homo sapiens) (UniProt P53350); assay: Inhibition of PLK1 (unknown origin) assessed as remaining activity at 1 uM by Kinome scan method relative to control
[17] = target: Casein kinase I isoform gamma-1 (Homo sapiens) (UniProt Q9HCP0); assay: Inhibition of CSNK1G1 (unknown origin) assessed as remaining activity at 1 uM by Kinome scan method relative to control
Casein kinase I isoform gamma-1 (Homo sapiens), sequence (Q9HCP0 whole entry, looked up, canonical isoform): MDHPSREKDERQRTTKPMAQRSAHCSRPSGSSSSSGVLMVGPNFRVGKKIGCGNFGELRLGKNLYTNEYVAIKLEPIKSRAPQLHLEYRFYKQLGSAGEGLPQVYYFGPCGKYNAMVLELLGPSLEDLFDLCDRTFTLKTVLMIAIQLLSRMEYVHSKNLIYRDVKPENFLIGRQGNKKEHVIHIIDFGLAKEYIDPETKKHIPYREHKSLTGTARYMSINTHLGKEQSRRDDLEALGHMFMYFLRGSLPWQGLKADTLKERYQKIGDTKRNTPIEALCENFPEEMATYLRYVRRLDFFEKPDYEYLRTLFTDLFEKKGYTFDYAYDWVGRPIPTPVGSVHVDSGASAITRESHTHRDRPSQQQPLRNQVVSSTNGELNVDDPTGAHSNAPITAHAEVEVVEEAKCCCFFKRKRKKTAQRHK

[18] = target: Aurora kinase B (Homo sapiens) (UniProt Q96GD4); assay: Inhibition of AURKB (unknown origin) assessed as remaining activity at 1 uM by Kinome scan method relative to control
Aurora kinase B (Homo sapiens), sequence (Q96GD4 whole entry): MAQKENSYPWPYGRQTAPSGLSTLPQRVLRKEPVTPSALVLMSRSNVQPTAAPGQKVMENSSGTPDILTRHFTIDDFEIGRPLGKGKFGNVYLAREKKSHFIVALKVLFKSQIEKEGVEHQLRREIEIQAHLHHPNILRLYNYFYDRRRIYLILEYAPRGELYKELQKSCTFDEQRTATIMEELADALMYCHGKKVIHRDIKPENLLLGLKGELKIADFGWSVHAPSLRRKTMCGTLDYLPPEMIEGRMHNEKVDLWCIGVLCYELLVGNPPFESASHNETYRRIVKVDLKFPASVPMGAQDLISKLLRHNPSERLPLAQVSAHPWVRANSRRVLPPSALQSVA

Dual specificity mitogen-activated protein kinase kinase 4 (Homo sapiens), sequence (P45985 whole entry): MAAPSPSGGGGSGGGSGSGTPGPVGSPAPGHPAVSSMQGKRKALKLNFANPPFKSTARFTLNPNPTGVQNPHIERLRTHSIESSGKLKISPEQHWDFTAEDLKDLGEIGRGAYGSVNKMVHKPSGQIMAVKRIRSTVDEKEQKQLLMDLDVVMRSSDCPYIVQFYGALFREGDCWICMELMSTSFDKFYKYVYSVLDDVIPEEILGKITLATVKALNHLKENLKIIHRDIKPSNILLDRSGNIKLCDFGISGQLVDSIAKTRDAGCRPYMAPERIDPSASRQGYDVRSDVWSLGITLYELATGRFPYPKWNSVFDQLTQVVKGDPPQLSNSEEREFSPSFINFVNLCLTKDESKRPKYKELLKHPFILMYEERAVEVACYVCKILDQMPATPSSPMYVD
Cyclin-dependent kinase 9 (Homo sapiens), sequence (P50750 whole entry): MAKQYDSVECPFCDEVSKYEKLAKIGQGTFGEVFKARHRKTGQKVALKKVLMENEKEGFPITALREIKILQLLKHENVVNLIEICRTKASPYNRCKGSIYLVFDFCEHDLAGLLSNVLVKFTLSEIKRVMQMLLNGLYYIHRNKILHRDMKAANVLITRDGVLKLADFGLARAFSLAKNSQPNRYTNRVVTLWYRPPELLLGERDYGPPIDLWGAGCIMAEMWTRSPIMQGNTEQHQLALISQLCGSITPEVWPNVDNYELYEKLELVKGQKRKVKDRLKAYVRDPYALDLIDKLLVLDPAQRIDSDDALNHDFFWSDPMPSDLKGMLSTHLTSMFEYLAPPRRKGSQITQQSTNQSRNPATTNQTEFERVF

Row | SMILES | Activity [1] [%] | Activity [2] [%] | Activity [3] [%] | Activity [4] [%] | Activity [5] [%] | Activity [6] [%] | Activity [7] [%] | Activity [8] [%] | Activity [9] [%] | Activity [10] [%] | Activity [11] [%] | Activity [12] [%] | Activity [13] [%] | Activity [14] [%] | Activity [15] [%] | Activity [16] [%] | Activity [17] [%] | Activity [18] [%]
1 | Nc1ccccc1Nc1ccc2c(c1)CCc1ccccc1C2=O | 64 | 93 | 75 | 90 | 94 | 99 | 93 | 82 | 0.9 | 98 | 86 | 97 | 85 | 77 | 96 | 93 | 79 | 97
2 | O=C1c2ccc(Nc3ccc(F)cc3F)cc2CCc2ccc(OC[C@H](O)CO)cc21 [Skepinone-L] | 78 | 100 | 86 | 79 | 100 | 100 | 99 | 90 | 0.15 | 100 | 82 | 100 | 82 | 91 | 100 | 88 | 90 | 96
